Laboratory results reported in paper PMC6749524, “Identification of New Antifungal Agents Targeting Chitin Synthesis by a Chemical-Genetic Method” (Molecules, 2019).
Like-named read-outs stand apart in the source and are kept apart here.

Assays:
[1] = system: budding yeast; test: MIC of CFW in the presence of compounds, checkerboard assay; assay type: cell-based, S. cerevisiae; settings: budding yeast, CFW alone
Method: (§1) Fresh cell cultures of WT S. cerevisiae and C. albicans ATCC10231 (OD600 = 0.8) were diluted to 10^4 CFU/mL in YPD medium. The in vitro synergistic and antagonistic effects of compounds were determined using checkerboard assay. MIC endpoints were defined as the lowest concentration of drugs, causing 80% decrease in viability compared to the drug-free control (MIC80). The calculation and interpretation of the fractional inhibitory concentration index (FICI) were carried out by referring to the document standards. FICI = (MIC of drug A in combination) / (MIC of drug A alone) + (MIC of drug B in combination) / (MIC of drug B alone). FIC ≤0.5 was considered as a synergistic effect, and >2 was considered as antagonism.

[2] = system: C. albicans; test: as above; assay type: cell-based, Candida albicans
Method: as §1

[3] = system: WT S. cerevisiae strain BY4741; test: MIC in compound library screening assay, WT yeast; assay type: cell-based; settings: for MIC: Saccharomyces cerevisiae
Method: (§2) The compound library is a combination of synthetic compounds from Enamine (Kyiv, Ukraine) and Life Chemicals Inc. (Burlington, ON, Canada) and natural products from the Institute of Medicinal Biotechnology. We used WT, chs3∆, and fks1∆ yeast strains to screen new antifungal agents. The screening assays were performed in 96-well plates in a final volume of 200 μL. Fresh yeast cells (OD600 = 0.8) were diluted to 10^5 CFU/mL in YPD medium. We added 198 μL of diluted culture and 2 μL of compounds into each well, and the final concentration of compounds was 100 μg/mL with 1% DMSO. The yeast cells were incubated at 30 °C for 24 hours to assess the growth. For the compounds that inhibited the growth of all three yeast strains, they were serially diluted to determine the minimal inhibit concentration (MIC) with the same method. MIC endpoints were defined as the lowest concentration of drugs that cause a 90% decrease in growth compared to the drug-free control (MIC90).

[4] = system: chs3∆ (chs3::KanMX in BY4741); test: MIC in compound library screening assay, chs3∆ yeast; assay type: cell-based, S. cerevisiae; settings: for MIC: Saccharomyces cerevisiae, 24 h
Method: as §2

[5] = system: fks1∆ (fks1::KanMX in BY4741); test: MIC in compound library screening assay, fks1∆ yeast; assay type: cell-based, S. cerevisiae; settings: for MIC: Saccharomyces cerevisiae, 24 h, read-out: MIC, fks1∆
Method: as §2

[6] = system: C. albicans ATCC10231; test: Checkerboard assay, synergy with caspofungin; assay type: cell-based; settings: Candida albicans
Method: as §1

[7] = system: WT S. cerevisiae; test: Checkerboard assay, synergy with caspofungin; assay type: cell-based; settings: for MIC: Saccharomyces cerevisiae, read-out: MIC Alone
Method: as §1

MIC of CFW [1] [µg/mL] | MIC of CFW ([2]; C. albicans, absence of chitin synthesis inhibitor) [µg/mL] | SMILES | MIC ([3]; WT BY4741, YPD, 30 °C, 24 hours, MIC90, read-out: MIC, WT) [µg/mL] | MIC ([4]; read-out: MIC, chs3∆) [µg/mL] | MIC [5] [µg/mL] | MIC ([6]; ATCC10231, compound alone, MIC80, read-out: MIC Alone) [µg/mL] | MIC ([7]; S. cerevisiae, compound alone, MIC80) [µg/mL] | MIC ([3]; 24 h, read-out: MIC, WT, WT BY4741, YPD, 30 °C, 24 hours, MIC90) [µg/mL] | MIC, WT ([3]; WT BY4741, YPD, 30 °C, 24 hours, MIC90) [µg/mL] | MIC ([4]; read-out: MIC, chs3∆, chs3∆ mutant, YPD, 30 °C, 24 hours, MIC90) [µg/mL] | MIC, chs3∆ ([4]; chs3∆ mutant, YPD, 30 °C, 24 hours, MIC90) [µg/mL] | MIC, fks1∆ ([5]; fks1∆ mutant, YPD, 30 °C, 24 hours, MIC90) [µg/mL] | MIC ([6]; ATCC10231, read-out: MIC Alone) [µg/mL] | MIC of Caspofungin Combination ([6]; MIC of caspofungin in combination with the named compound, MIC80) [µg/mL] | MIC Combination ([6]; MIC of the compound in combination with caspofungin, MIC80) [µg/mL] | MIC of Caspofungin Combination ([7]; S. cerevisiae, MIC of caspofungin in combination with the named compound, MIC80) [µg/mL] | MIC Combination ([7]; S. cerevisiae, MIC of the compound in combination with caspofungin, MIC80) [µg/mL] | FICI ([7]; S. cerevisiae, fractional inhibitory concentration index with caspofungin, ≤0.5 synergistic) | MIC [7] [µg/mL] | MIC ([2]; Candida albicans, read-out: MIC of CFW in the presence of nikkomycin Z) [µg/mL]
6.25 | 12.5 | O=S(=O)([O-])c1cc(Nc2nc(Nc3ccccc3)nc(N(CCO)CCO)n2)ccc1/C=C/c1ccc(Nc2nc(Nc3ccccc3)nc(N(CCO)CCO)n2)cc1S(=O)(=O)[O-].[Na+].[Na+] [CFW, Calcofluor White M2R, reference compound] | – | – | – | – | – | – | – | – | – | – | – | – | – | – | – | – | – | –
– | – | CC[C@H](C)C[C@H](C)CCCCCCCCC(=O)N[C@H]1C[C@@H](O)[C@@H](NCCN)NC(=O)[C@@H]2[C@@H](O)CCN2C(=O)[C@H]([C@H](O)CCN)NC(=O)[C@H]([C@H](O)[C@@H](O)c2ccc(O)cc2)NC(=O)[C@@H]2C[C@@H](O)CN2C(=O)[C@H]([C@@H](C)O)NC1=O [Caspofungin, caspofungin] | 0.03 | 0.00375 | 0.015 | 0.025 | 0.03 | – | – | – | – | – | – | – | – | – | – | – | – | –
– | – | C[C@@H]([C@H](N)C(=O)N[C@H](C(=O)O)[C@H]1O[C@@H](n2ccc(=O)[nH]c2=O)[C@H](O)[C@@H]1O)[C@H](O)c1ccc(O)cn1 [Nikkomycin, nikkomycin Z, reference compound] | – | – | 25 | – | – | ≥ 200 | > 200 | ≥ 200 | > 200 | 25 | 12.5 | 0.00625 | 3.125 | 0.0075 | 12.5 | <0.5 | > 100 | 100
